# Laboratory results taken from US20260069693A1, “UROLITHINS AND T-CELL MEDIATED IMMUNE RESPONSE” (priority 2022, published 2026).
# Legend:
# human CD3^+ T cells = experiment: aCD3/aCD28 stimulation of human T cells in presence of UA; format: cell-based
# Description: Finally, the inventors aimed to determine whether UA causes expansion of TSCM cells in human CD8^+ T cells. The inventors isolated human CD3^+ T cells from PBMCs of healthy donors and stimulated them with aCD3/aCD28 beads in vitro in the presence of UA (FIG. 6A). Indeed, UA increased the frequency of human TSCM cells based on the expression of CD45RA^+CCR7^HiCD62L^+CD95^+CD8^+ in five out of five individual donors (FIG. 6B).
# Splenic murine T cells were isolated from mice aged 6-20 weeks by negative selection with EasySep mouse T cell isolation kit (Stem cell) according to the manufacturer's instructions. To monitor T cell proliferation, purified T cells were loaded with CellTrace Violet (C34557 ThermoFisher Scientific). T cell activation was initiated using αCD3/CD28 activation beads (11456D; ThermoFisher Scientific) at a ratio of 25 μl dynabeads per 0.5×10^6 T-cells. Cells were activated with 25-50 μM Urolithin A (Tocris) or DMSO in T cell activation Medium (RPMI (ThermoFisher Scientific) 10% FBS (South America origin), 10 mM Hepes (Sigma), 1× Non-Essential Amino Acid, 1 mM Sodium Pyruvate, 50 μM B-Mercaptoethanol, 100 U/ml penicillin, 100 μg/ml streptomycin and 2 mM Glutamax (ThermoFisher Scientific) for the indicated durations. In selected experiments, cells were stimulated in the presence of inhibitors, namely TCF1i (ICG-001; SelleckChem; 10 μM) and PGC-1αi (SR-18292, Sigma-Aldrich; 10 μm,). For subsequent analysis, activating beads were magnetically removed prior antibody staining. For human T cells, peripheral blood mononuclear cells were purified with a Ficoll-Paque (GE healthcare) gradient. […]
# For flow cytometric analysis of mitochondria and lysosomes 500 μl of Mitotracker Red (200 nM; ThermoFisher) or Lysotracker Red DND-99 (75 nM; ThermoFisher) were applied followed by surface staining. […] Cell proliferation was assessed by CellTrace Violet (Invitrogen, C34557) at a concentration of 5 μM according to manufacturer's instructions. […]
# CD19-CAR T cells = format: cell-based, human
# APTK-s.c. tumors [1] = experiment: subcutaneous APTK tumors, UA-supplemented diet; format: in vivo, C57BL/6 mice
# APTK-s.c. tumors [2] = experiment: subcutaneous APTK tumors in Rag1-/- mice, UA diet; details: absence of mature T and B cells; UA-containing vs control food
# APTK organoids = experiment: APTK tumor organoids incubated with UA, flow cytometry
# [3] = increasing concentrations of UA (25-50 μM)
smiles,measurement,setting,value
"O=c1oc2cc(O)ccc2c2ccc(O)cc12 [UA, Urolithin A]",frequency of human TSCM cells (CD45RA+CCR7HiCD62L+CD95+CD8+),"human CD3^+ T cells; 48 h, UA 50 μM, five out of five individual donors",increased
same,TCF1 expression in human CD8+ T cells,"human CD3^+ T cells; 48 h, intracellular staining",increased
same,mitochondrial membrane potential of human CD8+ T cells,human CD3^+ T cells; after 48 hours,decreased
same,gene delivery into CD8+ cells,CD19-CAR T cells,did not impair
same,Markers of exhaustion of CAR T cells,CD19-CAR T cells; UA supplementation,not affected
same,CAR expressing TSCM cells,"CD19-CAR T cells; three days post transduction, UA vs DMSO",markedly increased
same,"CAR expressing TSCM cells, share of CD8+ cells","CD19-CAR T cells; three days post transduction, upon UA exposure",about 60%
same,"tumor growth, UA diet combined with PD-1 blockade",APTK-s.c. tumors [1]; UA-containing food + a-PD-1,sensitized APTK tumors to PD-1 blockade
same,tumor growth,APTK-s.c. tumors [1]; UA-supplemented diet from day 11 after tumor injection vs control food,significantly reduced
same,tumor growth (protective effect of UA),APTK-s.c. tumors [2],abrogated the protective effect of UA
same,MHC-I (antigen presentation),"APTK organoids; UA 25-50 μM, 48 h",marked upregulation
same,MitoTracker staining,APTK organoids; [3],concomitant loss
same,formation of lysosomes (lysotracker),APTK organoids; [3],dose-dependent formation
